# Where “and” joins values, the source holds several entries; their conditions need not be identical. Equal values may be shown once. Read-outs that look alike come from different tables or passages of the source. Marks after values point to notes of the source that are not given here.
# Tests used:
# 5-HT2A receptor [1] = target: T1, 5-HT2A receptor (Homo sapiens (Human), UniProt P28223); assay: 5-HT2A functional assay, TRUPATH (BRET); assay type: cell-based
# Protocol: (§1) After incubation, cells were lysed and fluorescence acceptor and donor were added. FRET was measured after 60 min at room temperature using a microplate reader (Envision, Perkin Elmer). TRUPATH assays followed a similar workflow, except that different reagents were used, and LiCl was not included in the samples; the protocol was based on the report by Olsen, R. H. J. et al., cited above.
# human 5-HT2B receptor [2] = target: T2, human 5-HT2B receptor (Homo sapiens (Human), UniProt P41595); assay: 5-HT2B radioligand competition binding ([3H]LSD); conditions: read-out: 5-HT2B, Ki; radioligand [3H]LSD
# T2 sequence (P41595 whole entry, looked up): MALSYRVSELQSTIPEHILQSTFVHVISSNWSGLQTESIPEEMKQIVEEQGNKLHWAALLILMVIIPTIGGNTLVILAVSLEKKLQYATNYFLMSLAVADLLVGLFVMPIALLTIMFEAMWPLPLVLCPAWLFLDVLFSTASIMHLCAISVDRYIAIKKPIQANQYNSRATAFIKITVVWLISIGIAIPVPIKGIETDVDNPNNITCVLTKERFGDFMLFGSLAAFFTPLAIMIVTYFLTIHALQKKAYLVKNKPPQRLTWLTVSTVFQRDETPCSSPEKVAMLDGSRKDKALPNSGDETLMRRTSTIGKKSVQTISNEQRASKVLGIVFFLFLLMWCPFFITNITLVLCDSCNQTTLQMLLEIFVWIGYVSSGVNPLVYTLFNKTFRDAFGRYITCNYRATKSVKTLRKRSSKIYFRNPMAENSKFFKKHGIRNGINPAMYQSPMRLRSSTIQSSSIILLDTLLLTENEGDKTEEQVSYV
# mice = assay: Head-twitch response (HTR) screening in mice; assay type: in vivo, mouse
# Protocol: Protocols were followed according to Canal C E, Morgan D. Head-twitch response in rodents induced by the hallucinogen 2,5-dimethoxy-4-iodoamphetamine: a comprehensive history, a re-evaluation of mechanisms, and its utility as a model. […] Mice were housed in standard laboratory cages with ad libitum access to food and water and were acclimated to the vivarium for at least one week prior to testing in a procedure room. In a typical experiment, mice were injected 3 mg/kg of test article subcutaneously. Mice were placed immediately thereafter in a clear, polycarbonate box (46×20×20 cm), and HTRs were counted at various time points after administration using hand-held tally counters. In a separate experiment, plasma and brain samples were collected at 15 and 160 minutes after administration of test compounds to measure plasma and brain concentrations. Quantification was performed using LC-MS/MS method (LLOQ, 9 nM).
# 5-HT2A receptor [3] = target: T1, 5-HT2A receptor; assay: 5-HT2A functional assay, IP1 (IPOne); assay type: cell-based; conditions: for Emax: relative to 5-HT
# Protocol: as §1
# human 5-HT2B receptor [4] = target: T2, human 5-HT2B receptor; assay: 5-HT2B functional assay, IP1 (IPOne); assay type: cell-based; conditions: for Emax: constrained to 100%
# Protocol: (§2) 5-HT2A,2B,2C receptor-mediated Gq activation—canonical signaling pathways—[phosphoinositide hydrolysis leading to the production of inositol phosphate 1 (IP1, IPOne, Cisbio assay) or direct G-protein activation using TRUPATH technology]were measured as previously described (Porter, R. H. P., Benwell, K. R., Lamb, H., Malcolm, C. S., Allen, N. F., Revell, D. F., Adams, D. R. and Sheardown, M. J., 1999, Functional characterization of agonists at recombinant human 5-HT2a, 5HT2b and 5-HT2c receptors in CHO-K1 cells, Brit J Pharmacol 128, 13; Olsen, R. H. J., DiBerto, J. F., English, J. G. et al. TRUPATH, an open-source biosensor platform for interrogating the GPCR transducerome. […] Briefly, for the IPOne assay, for 5-HT2ARs, CHO-K1 or HEK-293 cells were incubated with test articles and 5-HT (positive control) in stimulation buffer containing LiCl. After incubation, cells were lysed and fluorescence acceptor and donor were added. FRET was measured after 60 min at room temperature using a microplate reader (Envision, Perkin Elmer). TRUPATH assays followed a similar workflow, except that different reagents were used, and LiCl was not included in the samples; the protocol was based on the report by Olsen, R. H. J. et al., cited above.
# 5-HT2A receptor [5] = target: T1, 5-HT2A receptor; assay: 5-HT2A radioligand competition binding ([3H]LSD or [3H]ketanserin)
# 5-HT2C receptor [6] = target: T3, 5-HT2C receptor (Homo sapiens (Human), UniProt P28335); assay: 5-HT2C radioligand competition binding ([3H]mesulergine or [3H]LSD)
# T3 sequence (P28335 whole entry, looked up): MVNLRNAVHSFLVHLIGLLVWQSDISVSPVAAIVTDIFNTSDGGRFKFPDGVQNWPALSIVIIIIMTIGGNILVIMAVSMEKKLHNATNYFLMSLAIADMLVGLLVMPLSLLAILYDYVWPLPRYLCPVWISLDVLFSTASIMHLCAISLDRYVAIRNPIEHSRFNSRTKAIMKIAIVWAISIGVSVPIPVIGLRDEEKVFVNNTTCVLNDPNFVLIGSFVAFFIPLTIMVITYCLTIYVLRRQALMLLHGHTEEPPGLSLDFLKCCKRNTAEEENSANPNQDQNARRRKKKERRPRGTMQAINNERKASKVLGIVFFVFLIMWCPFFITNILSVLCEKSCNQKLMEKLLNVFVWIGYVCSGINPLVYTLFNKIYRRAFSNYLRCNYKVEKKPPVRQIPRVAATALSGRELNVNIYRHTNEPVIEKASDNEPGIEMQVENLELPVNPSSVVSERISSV
# 5-HT2C receptor [7] = target: T3, 5-HT2C receptor; assay: 5-HT2C functional assay, TRUPATH (BRET); assay type: cell-based
# Protocol: as §2
# [8] = In vitro liver microsome stability (RLM); assay type: in vitro ADME; conditions: rat, rat liver microsomes, 0.5 mg/mL microsomes, NADPH, read-out: RLM, t1/2
# Protocol: In vitro stability was determined in Human (HLM), Rat (RLM), Mouse (MsLM), and dog (DLM) Liver Microsomes. All liver microsomes were purchased from a commercial supplier (e.g. XenoTech). The reaction mixture, minus NADPH, was prepared as described below. The test compound was added into the reaction mixture at a final concentration of 1 μM or co-dosed with their deuterated analog(s) at 1 μM each. The control compound, testosterone, was run simultaneously with the test compound in a separate reaction. The reaction mixture (without cofactor) was equilibrated in a shaking water bath at 37° C. for 5 minutes. The reaction was initiated by the addition of the cofactor, and the mixture was incubated in a shaking water bath at 37° C. Aliquots (150 μL) were withdrawn at 0, 5, 10, 20, 30, 60, and 120 minutes. Test compound and testosterone samples were immediately combined with 150 μL of ice-cold acetonitrile (ACN) containing 0.1% formic acid and internal standard to terminate the reaction. The samples were then mixed and centrifuged to precipitate proteins. All samples were assayed by LC-MS/MS using electrospray ionization. The peak area response ratio (PARR) of analyte to internal standard at each time point was compared to the PARR at time 0 to determine the percent remaining at each time point. Half-lives were calculated using GraphPad software, fitting to a single-phase exponential decay equation.
# MAO-A = MAO-A (Homo sapiens (Human), UniProt P21397); assay: Recombinant human MAO-A activity (stability); assay type: in vitro ADME; conditions: hrMAO 0.02 mg/mL, read-out: MAO-A, t1/2
# Sequence of MAO-A (P21397 whole entry, looked up): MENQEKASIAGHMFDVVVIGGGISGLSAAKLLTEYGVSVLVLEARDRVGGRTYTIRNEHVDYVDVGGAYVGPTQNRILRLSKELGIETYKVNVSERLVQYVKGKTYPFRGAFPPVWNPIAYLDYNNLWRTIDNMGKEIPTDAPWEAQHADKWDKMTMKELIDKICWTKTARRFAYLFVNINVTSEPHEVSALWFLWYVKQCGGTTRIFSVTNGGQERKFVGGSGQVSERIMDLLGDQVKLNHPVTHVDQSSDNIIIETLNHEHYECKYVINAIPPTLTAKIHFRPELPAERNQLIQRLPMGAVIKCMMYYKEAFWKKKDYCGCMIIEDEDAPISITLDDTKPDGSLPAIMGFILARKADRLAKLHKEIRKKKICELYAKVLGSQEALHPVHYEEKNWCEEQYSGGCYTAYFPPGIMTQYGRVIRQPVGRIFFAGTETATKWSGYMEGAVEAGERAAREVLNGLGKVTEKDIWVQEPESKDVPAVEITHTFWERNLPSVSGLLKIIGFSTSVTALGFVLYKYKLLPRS
# Protocol: hrMAO-A and MAO control were purchased from XenoTech. The reaction mixture was prepared as described below. The test compound was added into the reaction mixture at a final concentration of 1 μM or co-dosed with their deuterated analog at 1 μM each. The positive control kynuramine (25 μM) was run simultaneously with the test compound in a separate reaction. The reaction mixture (without test compounds or kynuramine) was equilibrated in a shaking water bath at 37° C. for 5 minutes. The reaction was initiated by the addition of the test compound or kynuramine, and the mixture was incubated in a shaking water bath at 37° C. Aliquots (150 μL) of the test compound reaction mixture were withdrawn at 0, 5, 10, 20, 30, 60, and 120 minutes. Aliquots (150 μL) of the positive control reaction mixture were withdrawn at 0 and 30 minutes. Test compound(s) and kynuramine samples were immediately combined with 150 μL of ice-cold 100% acetonitrile containing 0.1% formic acid and internal standard (0.2 μM metoprolol) to terminate the reaction. The samples were then mixed and centrifuged to precipitate proteins. All samples were assayed by LC-MS/MS. The peak area response ratio (PARR) of analyte to internal standard at each time point was compared to the PARR at time 0 to determine the percent remaining at each time point. Half-lives were calculated using GraphPad software, fitting to a single-phase exponential decay equation.
# [9] = Plasma and brain concentrations after dosing in mice (screening); assay type: in vivo, mouse; conditions: mouse; for concentration at 15 min / concentration at 160 min: sc, mice, 3 mg/kg s.c.
# 5-HT1A receptors = 5-HT1A receptors (Homo sapiens (Human), UniProt P08908); assay: 5-HT1A radioligand binding ([3H]8-OH-DPAT)
# Protocol: In another series of 5-HT1A,2A,2B radioligand competition binding assays, the conditions were as follows: For 5-HT1A assays, cell membrane homogenates (˜30 μg protein) derived from HEK-293 cells expressing human 5-HT1ARs were incubated with 0.5 nM [^3H]8-hydroxy-2-(di-n-propylamino)tetralin ([^3H]8-OH-DPAT) for 60 min at room temperature in the presence or absence of the test article. Non-specific binding was determined in the presence of 10 μM 8-OH-DPAT. Samples were then analyzed as described above, with only immaterial differences. […] Samples were then analyzed as described above.
# [10] = read-out: 5-HT2A, Ki, radioligand [3H]ketanserin
# [11] = read-out: 5-HT2C, Ki, radioligand [3H]mesulergine
compound,measurement,setting,value
"COc1cc(SC(F)(F)F)c(OC)cc1CCNCC1CC1 [Compound V-1, N-(cyclopropylmethyl)-2-(2,5-dimethoxy-4-((trifluoromethyl)thio)phenyl)ethan-1-amine]",EC50,5-HT2A receptor [1],28 nM
same,Emax,"5-HT2A receptor [1]; TRUPATH, relative to 5-HT",75%
same,Ki,human 5-HT2B receptor [2],79 nM
same,HTR (in words),mice; 3 mg/kg,elicited an HTR to a much lower extent than DOI
same,HTR 15-25 min,mice; calculated using 0-30 min,3 ####
same,HTR 160-170 min,"mice; mice, 3 mg/kg s.c.",4.42
same,5-HT2AR agonist activity (in words),5-HT2A receptor [3],potent 5-HT2AR agonist
same,EC50,"5-HT2A receptor [3]; 5-HT2A EC50, IP1 assay",35 nM and 35.7 nM
same,Emax,5-HT2A receptor [3]; IP1 assay,31%
same,Emax,human 5-HT2B receptor [4]; IP1 assay,100%
same,EC50,"human 5-HT2B receptor [4]; IP1 assay, read-out: 5-HT2B EC50",> 1000 nM
same,Ki,"5-HT2A receptor [5]; read-out: 5-HT2A, Ki, radioligand [3H]LSD",10 nM
same,Ki,5-HT2A receptor [5]; read-out: 5-HT2AR affinity (Ki),10 nM
same,Ki,5-HT2C receptor [6],74.9 nM
same,Ki,"5-HT2C receptor [6]; read-out: 5-HT2C, Ki, [3H]LSD, high-affinity active state",0.98 nM
same,EC50,5-HT2C receptor [7],46 nM
same,Emax,5-HT2C receptor [7]; relative to 5-HT,92%
"COc1cc(C(F)(F)F)c(OC)cc1CCN [Reference Compound 4, 2-(2,5-dimethoxy-4-(trifluoromethyl)phenyl)ethan-1-amine, reference compound]",half-life at 1 μM,[8],0.128 h
same,half-life at 1 μM,MAO-A,1.46 h
same,Ki,5-HT2A receptor [5]; [10],25 nM
same,Ki,5-HT2C receptor [6]; [11],35 nM
"[2H]C([2H])(N)Cc1cc(OC)c(C(F)(F)F)cc1OC [IV-3, 2-(2,5-dimethoxy-4-(trifluoromethyl)phenyl)ethan-1,1-d2-1-amine]",half-life at 1 μM,[8],0.185 h
same,half-life at 1 μM,MAO-A,1.7 h
same,Ki,5-HT2A receptor [5]; [10],42 nM
same,Ki,5-HT2C receptor [6]; [11],23 nM
"COc1cc(SCCC(F)F)c(OC)cc1CCN [Compound I-3, 2-(4-((3,3-difluoropropyl)thio)-2,5-dimethoxyphenyl)ethan-1-amine]",concentration at 15 min,"[9]; brain, read-out: Brain 15 min",670 nM
same,concentration at 160 min,"[9]; brain, read-out: Brain, 160 min",510 nM
same,Kp at 160 min,"[9]; brain/plasma, subcutaneous, 3 mg/kg, 160 min after 3 mg/kg, read-out: brain/plasma ratio, 160 min",9.3
same,concentration at 15 min,"[9]; plasma, read-out: Plasma, 15 min",700 nM
same,concentration at 160 min,"[9]; plasma, read-out: Plasma, 160 min",55 nM
same,HTR 15-25 min,"mice; mice, 3 mg/kg s.c.",5
same,HTR 160-170 min,"mice; mice, 3 mg/kg s.c.",2.5
same,inhibition at 0.1 µM,5-HT1A receptors; 100 nM,10%
same,inhibition at 1 µM,5-HT1A receptors; 1 uM,63%
same,EC50,5-HT2A receptor [3],10 nM
same,2A/2B EC50 Selectivity,5-HT2A receptor [3]; IP1 assay,16
same,Emax,5-HT2A receptor [3]; IP1 assay,93%
same,EC50,human 5-HT2B receptor [4],160 nM
same,Emax,human 5-HT2B receptor [4]; IP1 assay,100%
same,half-life at 1 μM,[8],1.85 h
same,Ki,5-HT2A receptor [5],44 nM
same,affinity at 5-HT2A receptors (in words),5-HT2A receptor [5],high affinity
same,Ki,"5-HT2A receptor [5]; read-out: 5-HT2A, Ki, [3H]LSD, high-affinity active state",0.4 nM

# — patent US20250236589A1, “THERAPEUTIC PHENETHYLAMINE COMPOSITIONS AND METHODS OF USE” (Cybin IRL Limited, priority 2022, published 2025)
